Target: SIK2 (Homo sapiens (Human), UniProt Q9H0K1)
Assay: SIK2 Enzymatic Assay Version 2 (High ATP)
Assay type: biochemical
Settings: 3 mM ATP and 200 μM HDAC5tide final, ADP-Glo Max luminescence
Method: All steps were performed at room temperature. Compounds were pre-plated onto an assay plate using an Echo acoustic dispenser (Labcyte, […] or […]) at 80 nL per well. Enzyme prepared in assay buffer at 6 nM (2× final concentration) was added at 4 μL per well using the Multidrop Combi (Thermo Fisher-used for all additions in this assay) to the assay plate, spun for 1 min at 1000 rpm (Allegra 6KR Beckman Coulter centrifuge), and incubated with compound for 30 minutes. […] ADP-Glo Max Reagent (prepared and aliquoted as per manufacturer instructions) was then added at 8 μL per well, spun and incubated for 2 hours. ADP-Glo Max Detection (prepared and aliquoted as per manufacturer instructions) was added at 8 μL per well to the assay plate, which was spun and incubated for 1 hour. The plate was then read on the Pherastar (BMG Labtech) using a luminescence read. Gain was set between 2200-2500.

SIK2, sequence (Q9H0K1 whole entry, species assumed): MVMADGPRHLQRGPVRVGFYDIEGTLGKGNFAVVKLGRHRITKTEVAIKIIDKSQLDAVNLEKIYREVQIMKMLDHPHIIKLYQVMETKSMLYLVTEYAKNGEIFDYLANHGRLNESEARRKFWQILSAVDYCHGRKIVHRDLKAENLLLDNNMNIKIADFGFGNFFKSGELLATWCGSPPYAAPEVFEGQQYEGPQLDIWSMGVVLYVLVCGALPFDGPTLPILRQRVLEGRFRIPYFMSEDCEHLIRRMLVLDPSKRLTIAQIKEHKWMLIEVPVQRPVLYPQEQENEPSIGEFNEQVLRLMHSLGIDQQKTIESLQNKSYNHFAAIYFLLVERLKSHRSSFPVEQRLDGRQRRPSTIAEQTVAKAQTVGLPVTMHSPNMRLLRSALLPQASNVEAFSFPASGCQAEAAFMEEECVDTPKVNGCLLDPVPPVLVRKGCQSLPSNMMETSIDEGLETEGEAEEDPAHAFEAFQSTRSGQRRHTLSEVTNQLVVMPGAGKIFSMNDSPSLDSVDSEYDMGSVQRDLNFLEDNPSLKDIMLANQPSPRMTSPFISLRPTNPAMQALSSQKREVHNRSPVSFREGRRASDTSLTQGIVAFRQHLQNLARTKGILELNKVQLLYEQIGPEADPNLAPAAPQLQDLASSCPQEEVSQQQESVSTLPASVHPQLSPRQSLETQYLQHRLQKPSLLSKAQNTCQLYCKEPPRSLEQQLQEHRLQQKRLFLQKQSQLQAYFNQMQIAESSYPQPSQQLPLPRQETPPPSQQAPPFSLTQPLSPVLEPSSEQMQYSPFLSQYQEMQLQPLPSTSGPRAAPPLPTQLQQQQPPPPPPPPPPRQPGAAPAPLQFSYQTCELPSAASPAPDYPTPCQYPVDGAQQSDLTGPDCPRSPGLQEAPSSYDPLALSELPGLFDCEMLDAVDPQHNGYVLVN

**Q.** With `Cc1cnnc(Nc2cc3cc(-c4c(OC[C@H]5CCN5C)cnn4C)ccn3n2)c1` [Example 141, 5-[2-methyl-4-[[(2R)-1-methylazetidin-2-yl]methoxy]pyrazol-3-yl]-N-(5-methylpyridazin-3-yl)pyrazolo[1,5-a]pyridin-2-amine] as the compound, how does the IC50 read?
**A.** Its IC50 is 0.001 µM.

**Q.** For `Cc1onc(OC[C@H](c2ccccc2F)N(C)C)c1-c1ccn2nc(NC(=O)C3CC3)cc2c1` [Example 324, N-[5-[3-[(2S)-2-(dimethylamino)-2-(2-fluorophenyl)ethoxy]-5-methyl-isoxazol-4-yl]pyrazolo[1,5-a]pyridin-2-yl]cyclopropanecarboxamide], which IC50 is on record?
**A.** The IC50 was 0.0238 µM.

**Q.** `CCC1(OCc2cnn(C)c2-c2ccn3nc(NC(=O)C4CC4)cc3c2)CN(C)C1` [Example 468, N-[5-[4-[(3-ethyl-1-methyl-azetidin-3-yl)oxymethyl]-2-methyl-pyrazol-3-yl]pyrazolo[1,5-a]pyridin-2-yl]cyclopropanecarboxamide] was tested. Which IC50 did it give?
**A.** Its IC50 is 0.0817 µM.

**Q.** For `Cc1cnc(Nc2cc3cc(-c4c(OC[C@H]5CCN5C)noc4C)ccn3n2)cn1` [Example 323, 5-[5-methyl-3-[[(2R)-1-methylazetidin-2-yl]methoxy]isoxazol-4-yl]-N-(5-methylpyrazin-2-yl)pyrazolo[1,5-a]pyridin-2-amine], which IC50 is on record?
**A.** The IC50 was 0.0256 µM.

**Q.** Which IC50 does the source give for `CN1CC[C@@H]1COc1cnn(C)c1-c1ccn2nc(Nc3ccc(=O)n(C)n3)cc2c1` [Example 143, 2-methyl-6-[[5-[2-methyl-4-[[(2R)-1-methylazetidin-2-yl]methoxy]pyrazol-3-yl]pyrazolo[1,5-a]pyridin-2-yl]amino]pyridazin-3-one] here?
**A.** Its IC50 is 0.0024 µM.

**Q.** For `Cc1ccc(Nc2cc3cc(-c4c(OC[C@H]5CCN5C)cnn4C(F)F)ccn3n2)nn1` [Example 98, 5-[2-(difluoromethyl)-4-[[(2R)-1-methylazetidin-2-yl]methoxy]pyrazol-3-yl]-N-(6-methylpyridazin-3-yl)pyrazolo[1,5-a]pyridin-2-amine], which IC50 is on record?
**A.** Its IC50 is 0.0079 µM.

**Q.** For `CN1C[C@@H](F)[C@@H](Oc2cnn(C)c2-c2ccn3nc(NC(=O)C4CC4)cc3c2)C1` [Example 499], which IC50 is on record?
**A.** The IC50 was 0.72 µM.

**Q.** For `Cc1cc(Nc2cc3cc(-c4c(OCC56CC(CN5)C6)cnn4C)ccn3n2)nc(C)n1` [Example 288, 5-[4-(3-azabicyclo[2.1.1]hexan-4-ylmethoxy)-2-methyl-pyrazol-3-yl]-N-(2,6-dimethylpyrimidin-4-yl)pyrazolo[1,5-a]pyridin-2-amine], which IC50 is on record?
**A.** The IC50 was 0.0168 µM.

**Q.** Which IC50 does the source give for `C[C@@H](O)CN1CC[C@@H]1COc1cnn(C)c1-c1ccn2nc(NC(=O)C3CC3)cc2c1` [Example 252, N-[5-[4-[[(2R)-1-[(2R)-2-hydroxypropyl]azetidin-2-yl]methoxy]-2-methyl-pyrazol-3-yl]pyrazolo[1,5-a]pyridin-2-yl]cyclopropanecarboxamide] here?
**A.** Its IC50 is 0.0094 µM.

**Q.** For `CN1CC(Oc2cnn(C)c2-c2ccn3nc(NC(=O)C4CC4)cc3c2)C1` [Example 399, N-[5-[2-methyl-4-(1-methylazetidin-3-yl)oxy-pyrazol-3-yl]pyrazolo[1,5-a]pyridin-2-yl]cyclopropanecarboxamide], which IC50 is on record?
**A.** Its IC50 is 0.174 µM.

**Q.** How did the IC50 turn out when `CN1CC[C@@H]1COc1cnn(C)c1-c1ccn2nc(NC(=O)[C@H]3C[C@@H]3C(F)(F)F)cc2c1` (racemic) [Example 70, trans-N-[5-[2-methyl-4-[((2R)-1-methylazetidin-2-yl)methoxy]pyrazol-3-yl]pyrazolo[1,5-a]pyridin-2-yl]-2-(trifluoromethyl)cyclopropanecarboxamide] was run?
**A.** The IC50 was 0.219 µM.

**Q.** Which IC50 does the source give for `Cc1nc(Nc2cc3cc(-c4c(OC[C@H]5CCN5C)cnn4C)ccn3n2)cc(C(=O)N(C)C)n1` [Example 108, N,N,2-trimethyl-6-[[5-[2-methyl-4-[[(2R)-1-methylazetidin-2-yl]methoxy]pyrazol-3-yl]pyrazolo[1,5-a]pyridin-2-yl]amino]pyrimidine-4-carboxamide] here?
**A.** The IC50 was 0.0033 µM.

**Q.** How did the IC50 turn out when `Cc1cc(Nc2cc3cc(-c4c(O[C@H]5CCN(C)C5)cnn4C)ccn3n2)ncn1` [Example 265, 5-[2-methyl-4-[(3S)-1-methylpyrrolidin-3-yl]oxy-pyrazol-3-yl]-N-(6-methylpyrimidin-4-yl)pyrazolo[1,5-a]pyridin-2-amine] was run?
**A.** The IC50 was 0.0305 µM.

**Q.** For `CN1CC[C@H](Oc2cnn(C)c2-c2ccn3nc(Nc4ccccn4)cc3c2)C1` [Example 452, 5-[2-methyl-4-[(3S)-1-methylpyrrolidin-3-yl]oxy-pyrazol-3-yl]-N-(2-pyridyl)pyrazolo[1,5-a]pyridin-2-amine], which IC50 is on record?
**A.** Its IC50 is 0.135 µM.

**Q.** Which IC50 does the source give for `Cn1ncc(O[C@@H]2CNC[C@H]2O)c1-c1ccn2nc(NC(=O)C3CC3)cc2c1` (single isomer, unassigned) [Example 414, (3*R,4*R)—N-[5-[4-(4-hydroxypyrrolidin-3-yl)oxy-2-methyl-pyrazol-3-yl]pyrazolo[1,5-a]pyridin-2-yl]cyclopropanecarboxamide] here?
**A.** Its IC50 is 0.0987 µM.

**Q.** With `COc1nnc(Nc2cc3cc(-c4c(OC[C@H]5CCN5C)cnn4C(F)F)ccn3n2)cc1C` [Example 97, 5-[2-(difluoromethyl)-4-[[(2R)-1-methylazetidin-2-yl]methoxy]pyrazol-3-yl]-N-(6-methoxy-5-methyl-pyridazin-3-yl)pyrazolo[1,5-a]pyridin-2-amine] as the compound, how does the IC50 read?
**A.** Its IC50 is 0.0029 µM.

**Q.** Which IC50 does the source give for `CO[C@@H]1CNC[C@@H]1Oc1cnn(C)c1-c1ccn2nc(NC(=O)C3CC3)cc2c1` (stereo in doubt) [Example 232, (rac-cis)-N-[5-[4-(4-methoxypyrrolidin-3-yl)oxy-2-methyl-pyrazol-3-yl]pyrazolo[1,5-a]pyridin-2-yl]cyclopropanecarboxamide] here?
**A.** The IC50 was 0.0332 µM.

**Q.** How did the IC50 turn out when `CN1CC[C@@H]1COc1cnn(C)c1-c1ccn2nc(NC(=O)[C@@H]3C[C@@H]3F)cc2c1` [Example 69, (1S,2S)-2-fluoro-N-[5-[2-methyl-4-[[(2R)-1-methylazetidin-2-yl]methoxy]pyrazol-3-yl]pyrazolo[1,5-a]pyridin-2-yl]cyclopropanecarboxamide] was run?
**A.** Its IC50 is 0.0303 µM.

**Q.** For `Cn1ncc(CO[C@@H]2CCNC2)c1-c1ccn2nc(NC(=O)C3CC3)cc2c1` [Example 182, N-[5-[2-methyl-4-[[(3R)-pyrrolidin-3-yl]oxymethyl]pyrazol-3-yl]pyrazolo[1,5-a]pyridin-2-yl]cyclopropanecarboxamide], which IC50 is on record?
**A.** Its IC50 is 0.0344 µM.

**Q.** How did the IC50 turn out when `Cc1onc(OC[C@](C)(N)c2ccccc2)c1-c1ccn2nc(NC(=O)C3CC3)cc2c1` [Example 326, N-[5-[3-[(2R)-2-amino-2-phenyl-propoxy]-5-methyl-isoxazol-4-yl]pyrazolo[1,5-a]pyridin-2-yl]cyclopropanecarboxamide] was run?
**A.** The IC50 was 0.06 µM.

**Q.** With `CN1C[C@H](COc2cnn(C)c2-c2ccn3nc(NC(=O)C4CC4)cc3c2)[C@@H](O)C1` [Example 424, N-[5-[4-[[(3R,4R)-4-hydroxy-1-methyl-pyrrolidin-3-yl]methoxy]-2-methyl-pyrazol-3-yl]pyrazolo[1,5-a]pyridin-2-yl]cyclopropanecarboxamide] as the compound, how does the IC50 read?
**A.** Its IC50 is 0.0961 µM.

**Q.** How did the IC50 turn out when `COC1(COc2noc(C)c2-c2ccn3nc(Nc4cc(C)nc(C)n4)cc3c2)CNC1` [Example 30, N-(2,6-dimethylpyrimidin-4-yl)-5-[3-[(3-methoxyazetidin-3-yl)methoxy]-5-methyl-isoxazol-4-yl]pyrazolo[1,5-a]pyridin-2-amine] was run?
**A.** The IC50 was 0.0052 µM.

**Q.** How did the IC50 turn out when `CC(C)c1cc(Nc2cc3cc(-c4c(O[C@H]5CCN(C)C5)cnn4C)ccn3n2)ncn1` [Example 271, N-(6-isopropylpyrimidin-4-yl)-5-[2-methyl-4-[(3S)-1-methylpyrrolidin-3-yl]oxy-pyrazol-3-yl]pyrazolo[1,5-a]pyridin-2-amine] was run?
**A.** Its IC50 is 0.0408 µM.

From patent US20240174662A1, “SMALL MOLECULE INHIBITORS OF SALT INDUCIBLE KINASES” (Janssen Biotech, Inc., priority 2021, published 2024)
